Data on 73 molecules can be found in patent publication US8722670B2, “Selective NR2B antagonists” (Bristol-Myers Squibb Company, priority 2011, dated 2014).

Each structure is given as a SMILES string. Read-outs that look alike come from different tables or passages of the source.

The target of the test is T1, hNR2B (Homo sapiens, UniProt Q05586+Q13224).
T1 construct: expressed in transfected cells; host or cells: Xenopus laevis oocytes, cRNA-injected
Nature of the test: Electrophysiology NMDA receptor experiments: two electrode voltage-clamp in Xenopus laevis oocytes, hNR2B IC50. In kind it is cell-based. Particulars: 50 μM glutamate, 30 μM glycine.

Setting [1] is: hNR2B activity class, read-out: Activity.
[2] abbreviates: voltage clamp -40 mV, read-out: hNR2B IC50.

T1 sequence (Q13224 27-1484, other chains not shown): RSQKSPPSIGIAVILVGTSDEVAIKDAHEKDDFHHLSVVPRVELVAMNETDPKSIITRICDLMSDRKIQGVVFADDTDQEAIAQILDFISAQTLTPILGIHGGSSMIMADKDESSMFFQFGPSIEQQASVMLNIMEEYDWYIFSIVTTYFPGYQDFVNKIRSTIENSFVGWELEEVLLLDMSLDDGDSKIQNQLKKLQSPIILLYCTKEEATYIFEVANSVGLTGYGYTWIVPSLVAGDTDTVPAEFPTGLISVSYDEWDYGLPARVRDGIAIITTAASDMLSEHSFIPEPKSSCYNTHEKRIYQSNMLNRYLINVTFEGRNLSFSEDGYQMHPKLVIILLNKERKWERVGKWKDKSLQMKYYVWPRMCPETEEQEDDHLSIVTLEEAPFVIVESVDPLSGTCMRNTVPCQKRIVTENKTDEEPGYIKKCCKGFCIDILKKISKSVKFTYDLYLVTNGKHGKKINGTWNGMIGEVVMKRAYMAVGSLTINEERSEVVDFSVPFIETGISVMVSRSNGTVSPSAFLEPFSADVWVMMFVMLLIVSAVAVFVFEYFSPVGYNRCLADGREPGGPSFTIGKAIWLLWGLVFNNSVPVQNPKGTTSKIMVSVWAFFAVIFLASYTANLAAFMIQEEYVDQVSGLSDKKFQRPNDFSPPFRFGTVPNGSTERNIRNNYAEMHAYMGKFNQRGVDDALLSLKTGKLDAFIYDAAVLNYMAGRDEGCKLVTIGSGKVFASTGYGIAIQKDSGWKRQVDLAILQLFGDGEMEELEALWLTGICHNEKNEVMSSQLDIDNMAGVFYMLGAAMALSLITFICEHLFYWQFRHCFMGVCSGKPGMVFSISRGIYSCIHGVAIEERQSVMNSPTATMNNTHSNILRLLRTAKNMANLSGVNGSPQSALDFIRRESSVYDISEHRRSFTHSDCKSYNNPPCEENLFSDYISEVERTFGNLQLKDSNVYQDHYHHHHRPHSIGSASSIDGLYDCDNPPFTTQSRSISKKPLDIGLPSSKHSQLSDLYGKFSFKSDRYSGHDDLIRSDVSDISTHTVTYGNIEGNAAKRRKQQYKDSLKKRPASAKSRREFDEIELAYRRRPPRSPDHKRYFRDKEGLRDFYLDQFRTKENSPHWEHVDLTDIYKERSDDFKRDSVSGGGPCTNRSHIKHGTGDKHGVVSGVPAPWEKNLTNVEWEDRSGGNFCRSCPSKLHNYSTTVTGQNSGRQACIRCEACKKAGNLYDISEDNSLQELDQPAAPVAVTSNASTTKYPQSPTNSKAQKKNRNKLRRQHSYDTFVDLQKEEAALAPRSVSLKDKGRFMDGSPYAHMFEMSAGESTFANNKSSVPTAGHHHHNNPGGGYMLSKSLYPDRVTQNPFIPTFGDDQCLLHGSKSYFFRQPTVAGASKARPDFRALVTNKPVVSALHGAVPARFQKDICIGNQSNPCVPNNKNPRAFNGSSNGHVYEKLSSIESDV
Experimental: Stage V and VI oocytes were surgically removed from the ovaries of large, well-fed and healthy Xenopus laevis anesthetized with 3-amino-benzoic acid ethyl ester (3 gm/l). […] Oocytes were then washed in the same solution supplemented with 1.8 mM CaCl2 and maintained in Barth's solution comprised of (in mM): 88 NaCl, 1 KCl, 2.4 NaHCO3, 10 HEPES, 0.82 MgSO4, 0.33 Ca(NO3)2, and 0.91 CaCl2 and supplemented with 100 μg/ml gentamycin, 10 μg/ml streptomycin, and 10 μg/ml penicillin.
Two electrode voltage-clamp recordings were made 2-7 days post-injection. Oocytes were placed in a dual-track plexiglass recording chamber with a single perfusion line that splits in a Y-configuration to perfuse two oocytes. Dual recordings were made at room temperature (23° C.) using two Warner OC725B two-electrode voltage clamp amplifiers, arranged as recommended by the manufacturer. Glass microelectrodes (1-10 Megaohms) were filled with 300 mM KCl (voltage electrode) or 3 M KCl (current electrode). The bath clamps communicated across silver chloride wires placed into each side of the recording chamber, both of which were assumed to be at a reference potential of 0 mV. Oocytes were perfused with a solution comprised of (in mM) 90 NaCl, 1 KCl, 10 HEPES, 10 EDTA and 0.5 BaCl2; pH 7.4, adjusted by addition of NaOH. Oocytes were recorded under voltage clamp at −40 mV. Final concentrations for glutamate and glycine were 50 μM and 30 μM, respectively. […] Dose response curves consisting of four to eight concentrations were obtained in this manner. The baseline leak current at −40 mV was measured before and after recording, and the full recording linearly corrected for any change in leak current. The level of inhibition by applied experimental compounds was expressed as a percent of the initial glutamate response, and averaged together across oocytes from multiple experiments.
For NMDA receptor subtype selectivity experiments human GluN1/GluN2A, GluN1/GluN2C, and GluN1/GluN2D cRNAs were expressed in Xenopus laevis as described above. Here, 10 μM concentrations of the antagonist was perfused with 50 μM glutamate and 30 μM glycine onto the oocyte for two min and the remaining current in the presence of the antagonist was compared to the maximal current obtained with 50 μM glutamate and 30 μM glycine alone (defined as 100%). When IC50 determinations were made against other NMDA receptor subtypes the protocol as described above was followed.

Consider `O=C1CCc2cc(OCc3nc(Nc4ccc(C(F)(F)F)cc4)no3)ccc2N1` [Example 180], for which the IC50 under setting [1] lay in the range of 1000 to 10000 nM. Regarding `O=c1ccc2cc(OCc3nc(Nc4ccc(C(F)(F)F)cc4)no3)ccc2[nH]1` [Example 181], the IC50 under setting [2] amounted to 145 nM. For `O=C1CCc2cc(OCc3nc(Nc4ccc(Cl)cc4)no3)ccc2N1` [Example 182], the IC50 under setting [1] lay within 1000 to 10000 nM. Still for that read-out and setting: under `O=c1ccc2cc(OCc3nc(Nc4ccc(Cl)cc4)no3)ccc2[nH]1` [Example 183] stands 1000 to 10000 nM; under `Oc1ccc(OCc2nc(Nc3ccc(Cl)c(Cl)c3)no2)cc1` [Example 184], 1000 to 10000 nM; under `Oc1ccc(OCc2nc(Nc3ccc(C(F)(F)F)cc3)no2)cc1` [Example 185], 1000 to 10000 nM. Still for that read-out and setting: under `O=C1CCc2cc(OCc3nc(Nc4ccc(OC(F)F)cc4)no3)ccc2N1` [Example 186] stands 201 to 1000 nM; under `Clc1ccc(Nc2noc(COc3ccc4[nH]ncc4c3)n2)cc1Cl` [Example 187], over 10000 nM. Same read-out and setting: under `FC(F)(F)c1ccc(Nc2noc(COc3ccc4[nH]ncc4c3)n2)cc1` [Example 188] stands over 10000 nM; under `Clc1ccc(CNc2noc(COc3ccc4[nH]ncc4c3)n2)cc1` [Example 189], 1000 to 10000 nM. Turning to `O=c1ccc2cc(OCc3nc(Nc4ccc(OC(F)F)cc4)no3)ccc2[nH]1` [Example 190], the IC50 under setting [2] was 168 nM. Consider `O=c1ccc2cc(OCc3nc(Nc4ccc(OC(F)F)c(Cl)c4)no3)ccc2[nH]1` [Example 191], for which the IC50 under setting [1] was under 200 nM. On the same count and under the same terms, under `O=c1ccc2cc(OCc3nc(Nc4ccc(F)c(Cl)c4)no3)ccc2[nH]1` [Example 192] stands 1000 to 10000 nM. Consider `O=C1CCc2cc(CCc3nc(Nc4ccc(Cl)c(Cl)c4)no3)ccc2N1` [Example 194, 6-(2-(3-(3,4-dichlorophenylamino)-1,2,4-oxadiazol-5-yl)ethyl)-3,4-dihydroquinolin-2(1H)-one], for which the IC50 under setting [2] is over 10000 nM.

Take `FC(F)(F)Oc1ccc(Nc2noc(CCc3ccc4[nH]nc(C(F)(F)F)c4c3)n2)cc1` [Example 195]: the IC50 under setting [1] was over 10000 nM.

Regarding `FC(F)Oc1ccc(Nc2noc(CCc3ccc4[nH]nc(C(F)(F)F)c4c3)n2)cc1Cl` [Example 197], the IC50 under setting [1] was over 10000 nM. Consider `Clc1ccc(Nc2noc(CCc3ccc4[nH]ncc4c3)n2)cc1Cl` [Example 198], for which, under setting [1], the IC50 fell in the range of 1000 to 10000 nM. Still for that read-out and setting: next, `O=C1CCc2cc(CCc3nc(Nc4ccc(Cl)c(Cl)c4)no3)ccc2N1` [Example 199]: over 10000 nM. Consider `Oc1ccc(CCc2nc(NCc3ccc(Cl)cc3)no2)cc1` [Example 200], for which the IC50 under setting [2] is 320 nM.

Take `FC(F)Oc1ccc(Nc2noc(CCc3ccc4[nH]ncc4c3)n2)cc1` [Example 201]: under setting [2], the IC50 stood at 470 nM. Turning to `Clc1ccc(Nc2noc(CCCc3ccc4[nH]ncc4c3)n2)cc1Cl` [Example 202], the IC50 under setting [1] was over 10000 nM. On the same count and under the same terms, next, `FC(F)(F)c1ccc(Nc2noc(CCCc3ccc4[nH]ncc4c3)n2)cc1` [Example 203]: over 10000 nM; `O=c1ccc2cc(CCc3nc(Nc4ccc(Cl)c(Cl)c4)no3)ccc2[nH]1` [Example 204]: 201 to 1000 nM; `FC(F)Oc1ccc(Nc2noc(CCc3ccc4[nH]ncc4c3)n2)cc1Cl` [Example 205]: over 10000 nM. Same read-out and setting: under `FC(F)Oc1ccc(Nc2noc(CCCc3ccc4[nH]ncc4c3)n2)cc1Cl` [Example 206] stands 1000 to 10000 nM.

On to `FC(F)Oc1ccc(Nc2noc(CCNc3ncnc4[nH]ncc34)n2)cc1Cl` [Example 207], for which, under setting [1], the IC50 was under 200 nM. For `O=c1ccc2cc(CCc3nc(Nc4ccc(OC(F)F)c(Cl)c4)no3)ccc2[nH]1` [Example 208], the IC50 under setting [2] came to 11 nM.

Take `Cc1ccc(Nc2noc(CCc3ccc4[nH]ncc4c3)n2)cc1F` [Example 209]: the IC50 under setting [2] came out at 19 nM. As for `Fc1cc(Nc2noc(CCc3ccc4[nH]ncc4c3)n2)ccc1OC(F)F` [Example 210], the IC50 under setting [1] is under 200 nM. As for `CCc1ccc(Nc2noc(CCc3ccc4[nH]ncc4c3)n2)cc1` [Example 211], the IC50 under setting [1] is under 200 nM. On the same count and under the same terms, next, `CCc1ccc(Nc2noc(CCc3ccc4[nH]ncc4c3)n2)cc1Cl` [Example 212]: 201 to 1000 nM. On the same count and under the same terms, next, `COc1ccc(Nc2noc(CCc3ccc4[nH]ncc4c3)n2)cc1C` [Example 213]: 1000 to 10000 nM.

As for `Cc1cc(Nc2noc(CCc3ccc4[nH]ncc4c3)n2)ccc1OC(F)F` [Example 214], the IC50 under setting [1] was 201 to 1000 nM. For `CCc1ccc(Nc2noc(CCc3ccc4[nH]ncc4c3)n2)cc1F` [Example 215], under setting [1], the IC50 was under 200 nM. Still for that read-out and setting: under `Fc1ccc(Nc2noc(CCc3ccc4[nH]ncc4c3)n2)cc1C(F)F` [Example 216] stands 201 to 1000 nM; under `Oc1ccc(CCc2nc(Nc3ccc(OC(F)F)c(F)c3)no2)cc1` [Example 219], under 200 nM. Still for that read-out and setting: under `Oc1ccc(CCc2nc(Nc3ccc(C(F)(F)F)cc3)no2)cc1` [Example 223] stands 201 to 1000 nM; under `Oc1ccc(CCc2nc(Nc3ccc(OC(F)(F)F)cc3)no2)cc1` [Example 224], 201 to 1000 nM. Still for that read-out and setting: under `Oc1ccc(CCc2nc(Nc3ccc(Cl)cc3)no2)cc1` [Example 225] stands 201 to 1000 nM; under `Oc1ccc(CCc2nc(Nc3ccc(OC(F)F)cc3)no2)cc1` [Example 226], 201 to 1000 nM. As to `Fc1cc(Nc2noc(CCc3ccc4cn[nH]c4c3)n2)ccc1Cl` [Example 227], the IC50 under setting [1] is over 10000 nM.

For `Fc1cc(Nc2noc(CCc3cccc4[nH]ncc34)n2)ccc1Cl` [Example 228], the IC50 under setting [1] was 1000 to 10000 nM. The same measure, in the same setting: next, `FC(F)Oc1ccc(Nc2noc(CCc3ccc4cn[nH]c4c3)n2)cc1Cl` [Example 230]: under 200 nM; `FC(F)Oc1ccc(Nc2noc(CCc3cccc4[nH]ncc34)n2)cc1Cl` [Example 231]: 1000 to 10000 nM; `Oc1ccc(CCc2nc(Nc3ccc(Cl)c(Cl)c3)no2)cc1` [Example 232]: 1000 to 10000 nM.

As for `Fc1cc(Nc2noc(CCc3cnc4[nH]ncc4c3)n2)ccc1OC(F)F` [Example 233], the IC50 under setting [1] was under 200 nM. For `FC(F)Oc1ccc(Nc2noc(CCc3ccc4[nH]nc(Cl)c4c3)n2)cc1Cl` [Example 234], under setting [1], the IC50 lay in the range of 1000 to 10000 nM. As for `Cc1cc(Nc2noc(C3CC3c3ccc4[nH]c(=O)ccc4c3)n2)ccc1OC(F)F` (stereo not shown) [Example 235, 6-(2-(3-((4-(difluoromethoxy)-3-methylphenyl)amino)-1,2,4-oxadiazol-5-yl)cyclopropyl)quinolin-2(1H)-one], the IC50 under setting [2] turned out to be 44 nM.

Consider `Cc1cc(Nc2noc(C3CC3c3ccc4[nH]ncc4c3)n2)ccc1OC(F)F` (stereo not shown) [Example 236], for which the IC50 under setting [1] was 201 to 1000 nM.

In the case of `Fc1cc(Nc2noc(C3CC3c3ccc4[nH]ncc4c3)n2)ccc1OC(F)F` (stereo not shown) [Example 238], the IC50 under setting [1] is under 200 nM. Take `O=C1CCc2cc(OCc3noc(Nc4ccc(Cl)c(Cl)c4)n3)ccc2N1` [Example 239, 6-((5-((3,4-dichlorophenyl)amino)-1,2,4-oxadiazol-3-yl)methoxy)-3,4-dihydroquinolin-2(1H)-one]: the IC50 under setting [2] was determined as 3600 nM.

`O=C1CCc2cc(OCc3nnc(Nc4ccc(Cl)c(Cl)c4)s3)ccc2N1` [Example 240]: the IC50 under setting [2] came to 266 nM.

In the case of `O=c1ccc2cc(OCc3nnc(Nc4ccc(C(F)(F)F)cc4)s3)ccc2[nH]1` [Example 241], the IC50 under setting [2] is 30 nM. On to `O=C1CCc2cc(OCc3nnc(Nc4ccc(C(F)(F)F)cc4)s3)ccc2N1` [Example 242], for which the IC50 under setting [1] was under 200 nM. `O=c1ccc2cc(OCc3nnc(Nc4ccc(Cl)c(Cl)c4)s3)ccc2[nH]1` [Example 243]: under setting [1], the IC50 is under 200 nM.

For `O=c1ccc2cc(OCc3nnc(Nc4ccc(Cl)cc4)s3)ccc2[nH]1` [Example 244], the IC50 under setting [1] was under 200 nM. Consider `O=c1ccc2cc(OCc3nnc(Nc4ccc(OC(F)(F)F)cc4)s3)ccc2[nH]1` [Example 245], for which, under setting [1], the IC50 was under 200 nM.

Consider `O=C1CCc2cc(OCc3nnc(Nc4ccc(OC(F)(F)F)cc4)s3)ccc2N1` [Example 247], for which the IC50 under setting [1] was under 200 nM.

With `O=C1CCc2cc(OCc3nnc(NCc4ccc(Cl)c(Cl)c4)s3)ccc2N1` [Example 248], the IC50 under setting [1] fell in the range of 201 to 1000 nM. On the same count and under the same terms, next, `O=c1ccc2cc(OCc3nnc(NCc4ccc(Cl)c(Cl)c4)s3)ccc2[nH]1` [Example 249]: 201 to 1000 nM. Same read-out and setting: next, `O=C1CCc2cc(OCc3nnc(Nc4ccc(Cl)cc4)s3)ccc2N1` [Example 250]: 201 to 1000 nM. Consider `O=c1ccc2cc(OCc3nnc(NCc4ccc(Cl)nc4)s3)ccc2[nH]1` [Example 251], for which the IC50 under setting [2] was 9400 nM. On the same count and under the same terms, under `O=C1CCc2cc(OCc3csc(Nc4ccc(Cl)c(Cl)c4)n3)ccc2N1` [Example 252, 6-((2-(3,4-dichlorophenylamino)thiazol-4-yl)methoxy)-3,4-dihydroquinolin-2(1H)-one] stands 24000 nM; under `O=c1ccc2cc(OCc3cc(NCc4ccc(OC(F)F)cc4)no3)ccc2[nH]1` [Example 253, 6-((3-(4-(difluoromethoxy)benzylamino)isoxazol-5-yl)methoxy)quinolin-2(1H)-one], 321 nM. Still for that read-out and setting: next, `O=c1ccc2cc(OCc3cc(Nc4ccc(Cl)c(Cl)c4)no3)ccc2[nH]1` [Example 254]: 193 nM. For `O=c1ccc2cc(OCc3cc(Nc4ccc(OC(F)F)c(Cl)c4)no3)ccc2[nH]1` [Example 255], the IC50 under setting [1] was under 200 nM. Regarding `O=c1ccc2cc(OCc3cc(Nc4ccc(Cl)c(F)c4)no3)ccc2[nH]1` [Example 256], the IC50 under setting [1] is under 200 nM. In the case of `O=c1ccc2cc(OCc3cc(Nc4ccc(Cl)c(F)c4)no3)ccc2[nH]1` [Example 257], the IC50 under setting [2] was determined as 10 nM. As to `FC(F)Oc1ccc(Nc2cc(COc3ccc4[nH]ncc4c3)on2)cc1Cl` [Example 258], the IC50 under setting [1] was under 200 nM. On the same count and under the same terms, under `O=c1ccc2cc(OCc3cc(Nc4ccc(OC(F)F)cc4)no3)ccc2[nH]1` [Example 260] stands under 200 nM. Consider `COc1ccc(Nc2cc(COc3ccc4[nH]c(=O)ccc4c3)on2)cc1Cl` [Example 261], for which, under setting [1], the IC50 was under 200 nM.

For `Cc1ccc(Nc2cc(COc3ccc4[nH]c(=O)ccc4c3)on2)cc1C` [Example 262], under setting [1], the IC50 was 1000 to 10000 nM.

As to `O=c1ccc2cc(OCc3cc(Nc4ccc(Cl)c(C(F)(F)F)c4)no3)ccc2[nH]1` [Example 263], under setting [1], the IC50 is 1000 to 10000 nM.
